Experimental data taken from patent publication US20220174947A1, “ANTIMICROBIAL MIXTURE CONTAINING 4-(3-ETHOXY-4-HYDROXYPHENYL)BUTAN-2-ONE AND AN ALCOHOL COMPOUND, AND COSMETIC COMPOSITION CONTAINING SAME” (L'OREAL, priority 2018, published 2022).

Tests used:
[1] = test system: Pseudomonas aeruginosa ATCC 9027; experiment: Synergistic antimicrobial activity as MIC, 96-well microplate, optical density at 620 nm; type: cell-based; conditions: for % MIC of A alone: Pseudomonas aeruginosa, growth <= 25%
Description: with: • MIC of A with B: minimum concentration of product A in the combination A+B which makes it possible to obtain an inhibitory effect; • MIC of B with A: minimum concentration of product B in the combination A+B which makes it possible to obtain an inhibitory effect; • MIC of A: minimum inhibitory concentration of product A alone; • MIC of B: minimum inhibitory concentration of product B alone. This formula was described for the first time in the article by F. C. Kull, […], and R. L. Mayer, Applied Microbiology 9:538-541, 1961. […] When the FIC index value is less than or equal to 1, it is considered that the combination of test compounds has a synergistic effect. The microbial strain Pseudomonas aeruginosa ATCC 9027 and a double-concentration nutrient broth liquid culture medium were used. A 96-well microplate at an incubation temperature of 32.5° C. is used. […] For each compound: […] 50 μl of each of the daughter solutions obtained containing compound A and 50 μl of each of the daughter solutions obtained containing compound B are added to the microplate wells. 100 μl of Sabouraud liquid nutrient broth inoculated at double concentration with the strain Aspergillus niger are also added thereto. A positive microbial growth control was also prepared. […] An absorbance control was performed in parallel on compounds A and B alone. This control corresponds to 100 μl of double concentration sterile Sabouraud liquid nutrient broth+100 μl of double concentration compound A or B. […] The test as described above (tests, absorbance control and growth control) was performed again to test the combination A+B on the following strains Enterococcus faecalis, Staphylococcus aureus, Pseudomonas aeruginosa, Candida albicans, where appropriate.

[2] = test system: Aspergillus niger ATCC 6275; experiment: as above; type: cell-based; conditions: for % MIC of A alone: Aspergillus niger, growth <= 25%
Description: FIC Index=(MIC of A with B/MIC of A)+(MIC of B with A/MIC of B [Math. 1]
with: • MIC of A with B: minimum concentration of product A in the combination A+B which makes it possible to obtain an inhibitory effect; • MIC of B with A: minimum concentration of product B in the combination A+B which makes it possible to obtain an inhibitory effect; • MIC of A: minimum inhibitory concentration of product A alone; • MIC of B: minimum inhibitory concentration of product B alone. This formula was described for the first time in the article by F. C. Kull, P. C. Eisman, H. D. Sylwestrowka, and R. L. Mayer, Applied Microbiology 9:538-541, 1961.
The microbial strain Aspergillus niger ATCC 6275, and a double-concentration Sabouraud broth liquid culture medium supplemented with polyoxyethylenated (20 OE) sorbitan monopalmitate (Tween 40 from Croda) and Phytagel© BioReagent were used (i.e. a mixture of 5 g of Phytagel+0.6 g of Tween 40+60 g of Sabouraud broth).
A 96-well microplate at an incubation temperature of 32.5° C. is used.
The incubation time of the microplate is: • from 24 to 30 h under aerobic conditions for microbial Aspergillus niger ATCC 6275; • from 18 to 24 h under aerobic conditions for Candida albicans ATCC 10231, Pseudomonas aeruginosa ATCC 9027 and Staphylococcus aureus ATCC 6538; • from 24 to 48 h under aerobic conditions for Enterococcus faecalis ATCC 33186.
For each compound: A=4-(3-ethoxy-4-hydroxyphenyl) butan-2-one compound B=alcohol compound A 10% (weight/volume) stock solution was prepared by mixing 1 g of compound in 9 ml of aqueous 1% agar solution. Successive dilutions were made with the 1% agar solution.
50 μl of each of the daughter solutions obtained containing compound A or B are added to the microplate wells. 100 μl of Sabouraud liquid nutrient broth inoculated at double concentration with the Aspergillus niger strain and 50 μl of aqueous 1% agar solution are also added thereto.
50 μl of each of the daughter solutions obtained containing compound A and 50 μl of each of the daughter solutions obtained containing compound B are added to the microplate wells. 100 μl of Sabouraud liquid nutrient broth inoculated at double concentration with the strain Aspergillus niger are also added thereto.
A positive microbial growth control was also prepared. The positive microbial growth control corresponds to a mixture of 100 μl of aqueous 1% agar solution with 100 μl of Sabouraud liquid nutrient broth inoculated at double concentration with the strain Aspergillus niger in the absence of compounds A and B.
An absorbance control was performed in parallel on compounds A and B alone. This control corresponds to 100 μl of double concentration sterile Sabouraud liquid nutrient broth+100 μl of double concentration compound A or B.
In the three cases (absorbance control, growth control and test), the final volume present in each of the microplate wells is 200 μl.
In the two cases (test and control), the inoculum represents the concentration of the Aspergillus niger strain present in the final volume of the wells (200 μl) and is between 2 and 6×10^5 cfu/ml of Aspergillus niger.

Question: How did the microbial growth percentage ([1]; 0.0625 A, 0 B4 weight %) turn out when `CCOc1cc(CCC(C)=O)ccc1O` [A, 4-(3-ethoxy-4-hydroxyphenyl)butan-2-one] was run?
Answer: The microbial growth percentage was 63%.

Question: What about the microbial growth percentage ([1]; 0.0625 A, 0 B6 weight %) of the same compound?
Answer: Its microbial growth percentage is 80%.

Question: And the microbial growth percentage ([1]; 0.125 A, 0 B4 weight %)?
Answer: Its microbial growth percentage is 60%.

Question: And the microbial growth percentage ([1]; 0.125 A, 0 B6 weight %)?
Answer: The microbial growth percentage was 63%.

Question: And the microbial growth percentage ([1]; 0.25 A, 0 B4 weight %)?
Answer: The microbial growth percentage was 64%.

Question: And the microbial growth percentage ([1]; 0.25 A, 0 B6 weight %)?
Answer: The microbial growth percentage was 56%.

Question: And the microbial growth percentage ([1]; 0.5 A, 0 B4 weight %)?
Answer: The microbial growth percentage was 62%.

Question: And the microbial growth percentage ([1]; 0.5 A, 0 B6 weight %)?
Answer: The microbial growth percentage was 61%.

Question: What about the microbial growth percentage ([1]; 1 A, 0 B4 weight %) of the same compound?
Answer: Its microbial growth percentage is 7%.

Question: What about the microbial growth percentage ([1]; 1 A, 0 B6 weight %) of the same compound?
Answer: The microbial growth percentage was −17%.

Question: What about the “% MIC of A alone” value ([1]; Example 4) of the same compound?
Answer: The value was 1%.

Question: What about the “% MIC of A alone” value ([1]; Example 6) of the same compound?
Answer: The value was 1%.

Question: And the microbial growth percentage ([2]; 0.025 A, 0 B1 weight %)?
Answer: Its microbial growth percentage is 82%.

Question: And the microbial growth percentage ([2]; 0.025 A, 0 B3 weight %)?
Answer: The microbial growth percentage was 45%.

Question: And the microbial growth percentage ([2]; 0.025 A, 0 B5 weight %)?
Answer: The microbial growth percentage was 55%.

Question: And the microbial growth percentage ([2]; 0.05 A, 0 B1 weight %)?
Answer: Its microbial growth percentage is 43%.

Question: And the microbial growth percentage ([2]; 0.05 A, 0 B3 weight %)?
Answer: Its microbial growth percentage is 35%.

Question: And the microbial growth percentage ([2]; 0.05 A, 0 B5 weight %)?
Answer: The microbial growth percentage was 32%.

Question: What about the microbial growth percentage ([2]; 0.1 A, 0 B1 weight %) of the same compound?
Answer: Its microbial growth percentage is 5%.

Question: What about the microbial growth percentage ([2]; 0.1 A, 0 B3 weight %) of the same compound?
Answer: The microbial growth percentage was 14%.

Question: And the microbial growth percentage ([2]; 0.1 A, 0 B5 weight %)?
Answer: Its microbial growth percentage is 16%.

Question: What about the “% MIC of A alone” value ([2]; Example 1) of the same compound?
Answer: Its value is 0.1%.

Question: What about the “% MIC of A alone” value ([2]; Example 3) of the same compound?
Answer: The value was 0.1%.

Question: What about the “% MIC of A alone” value ([2]; Example 5) of the same compound?
Answer: The value was 0.1%.
